Measured values from patent publication US20150148551A1, “GENISTEIN FOR REDUCING LEVELS OF STORAGE COMPOUNDS IN THE TREATMENT AND/OR PREVENTION OF LYSOSOMAL STORAGE DISEASES (LSDS)” (3G THERAPEUTICS, INC., priority 2012, published 2015).

Tests used:
ARSG = test: DNA microarray, ARSG expression in fibroblasts exposed to genistein; type: cell-based, human; conditions: for ARSG fold change Average: 48 h vs DMSO
Procedure: (§1) The experiments were conducted to characterise the transcriptomic profile of human fibroblast cells exposed to genistein, and in particular to determine the expression of genes encoding lysosomal enzymes involved in metabolism (i.e. synthesis and degradation) of organic substances. The absence or deficiency of these enzymes' activity is responsible for occurrence of various lysosomal storage diseases (LSD) (including MPS). The tested hypothesis assumed that genistein influences the expression of many genes, among which there are genes coding for enzymes required in metabolism of compounds, which are pathologically stored in LSD. The results provide important information regarding genistein action on the molecular level within the range of gene expression modulation by this substance. The experiment was conducted in biological quintuplicates. Human dermal fibroblasts (HDFa) were exposed in vitro for 1, 24 or 48 hours to: 30, 60 or 100 μM of genistein; 0.05% DMSO (K1); or were untreated (control cells) (K2), and total RNA was isolated and analysed.
(§2) Fibroblast cells were grown in Dulbecco (DMEM) medium supplemented with 10% fetal bovine serum (FBS) with the addition of 1% antibiotics and anti-fungal agents at 37° C. in humidified atmosphere of 5% CO2, until the required confluency was obtained.
(§3) To determine the effect of tested compound on the transcriptom of the fibroblast cells, the growth medium was replaced with fresh medium, either non-supplemented (0.05% DMSO), or containing genistein (30, 60 or 100 μM, in 0.05% DMSO). The exposure was done for 1, 24 or 48 hours.
(§4) Total RNA was isolated from fibroblasts using High Pure RNA Isolation Kit according to the protocol and then it was quantitatively evaluated using Quant-It™ RiboGreen® Assay Kit.
(§5) Biotinylated cRNA was prepared using Ambion Total PrepAmp Kit for Illumina arrays.
(§6) Standard hybridization and quantitative image analysis procedures—Illumina hybridization protocol and Illumina scanning protocol, were used.
(§7) Processing of the results was done during data definition, including: background correction (using background subtraction method), normalization (using quantile normalization algorithm with Illumina GenomeStudio software package: gene expression module version 1.9.0) and summarization (using method, which sums the values of signal intensities from a set of probes).

[1] = humans and animals; cited from earlier work
ARSA = test: DNA microarray, ARSA expression in fibroblasts exposed to genistein; type: cell-based, human; conditions: for ARSA fold change Average: 48 h vs DMSO
Procedure: as §1, §2, §3, §4, §5, §6, §7

GBA = test: DNA microarray, GBA expression in fibroblasts exposed to genistein; type: cell-based, human; conditions: for GBA fold change Average: 48 h vs DMSO
Procedure: as §1, §2, §3, §4, §5, §6, §7

MAN2B1 = test: DNA microarray, MAN2B1 expression in fibroblasts exposed to genistein; type: cell-based, human; conditions: for MAN2B1 fold change Average: 48 h vs DMSO
Procedure: as §1, §2, §3, §4, §5, §6, §7

SLC11A2 = test: DNA microarray, SLC11A2 expression in fibroblasts exposed to genistein; type: cell-based, human; conditions: for SLC11A2 fold change Average: 48 h vs DMSO
Procedure: as §1, §2, §3, §4, §5, §6, §7

TBP = test: DNA microarray, TBP reference gene expression in fibroblasts exposed to genistein; type: cell-based, human
Procedure: as §1, §2, §3, §4, §5, §6, §7

SMPD1 = test: DNA microarray, SMPD1 expression in fibroblasts exposed to genistein; type: cell-based, human; conditions: for SMPD1 fold change Average: 48 h vs DMSO
Procedure: as §1, §2, §3, §4, §5, §6, §7

HEXA = test: DNA microarray, HEXA expression in fibroblasts exposed to genistein; type: cell-based, human; conditions: for HEXA fold change Average: 48 h vs DMSO
Procedure: as §1, §2, §3, §4, §5, §6, §7

Which “ARSG fold change Average 1h60/1hK1” value (ARSG; 60 μM, 1 h vs 0.05% DMSO) does the source give for `O=c1c(-c2ccc(O)cc2)coc2cc(O)cc(O)c12` [genistein, 4′,5,7-trihydroxy-3-phenylchromen-4-one] here?
The value was 1.204 fold change.

And the “ARSG fold change Average” value (ARSG; 60 μM)?
The value was 2.488 fold change.

And the “ARSG fold change Average 1h100/1hK1” value (ARSG; 100 μM, 1 h vs 0.05% DMSO)?
Its value is 0.961 fold change.

What about the “ARSG fold change Average” value (ARSG; 100 μM) of the same compound?
Its value is 1.81 fold change.

And the tolerability [1]?
The tolerability was “well-tolerated”.

And the “ARSA fold change Average 1h30/1hK1” value (ARSA; 30 μM, 1 h vs 0.05% DMSO)?
The value was 0.9099 fold change.

And the “ARSA fold change Average 1h60/1hK1” value (ARSA; 60 μM, 1 h vs 0.05% DMSO)?
The value was 0.9092 fold change.

What about the “ARSA fold change Average” value (ARSA; 60 μM) of the same compound?
Its value is 1.218 fold change.

And the “ARSA fold change Average 1h100/1hK1” value (ARSA; 100 μM, 1 h vs 0.05% DMSO)?
The value was 0.963 fold change.

And the “ARSA fold change Average” value (ARSA; 100 μM)?
Its value is 1.526 fold change.

What about the “GBA fold change Average 1h30/1hK1” value (GBA; 30 μM, 1 h vs 0.05% DMSO) of the same compound?
Its value is 0.9138 fold change.

And the “GBA fold change Average” value (GBA; 30 μM)?
The value was 1.257 fold change.

And the “GBA fold change Average 1h60/1hK1” value (GBA; 60 μM, 1 h vs 0.05% DMSO)?
The value was 1.033 fold change.

And the “GBA fold change Average” value (GBA; 60 μM)?
The value was 1.467 fold change.

What about the “GBA fold change Average 1h100/1hK1” value (GBA; 100 μM, 1 h vs 0.05% DMSO) of the same compound?
The value was 0.9469 fold change.

What about the “GBA fold change Average” value (GBA; 100 μM) of the same compound?
The value was 1.606 fold change.

And the “MAN2B1 fold change Average 1h30/1hK1” value (MAN2B1; 30 μM, 1 h vs 0.05% DMSO)?
Its value is 1.0342 fold change.

What about the “MAN2B1 fold change Average” value (MAN2B1; 30 μM) of the same compound?
The value was 1.036 fold change.

And the “MAN2B1 fold change Average 1h60/1hK1” value (MAN2B1; 60 μM, 1 h vs 0.05% DMSO)?
Its value is 0.8507 fold change.

What about the “MAN2B1 fold change Average” value (MAN2B1; 60 μM) of the same compound?
Its value is 1.586 fold change.

What about the “MAN2B1 fold change Average 1h100/1hK1” value (MAN2B1; 100 μM, 1 h vs 0.05% DMSO) of the same compound?
Its value is 0.9864 fold change.

And the “MAN2B1 fold change Average” value (MAN2B1; 100 μM)?
Its value is 1.924 fold change.

And the “SLC11A2 fold change Average 1h30/1hK1” value (SLC11A2; 30 μM, 1 h vs 0.05% DMSO)?
Its value is 1.0227 fold change.

And the “SLC11A2 fold change Average” value (SLC11A2; 30 μM)?
Its value is 1.2196 fold change.

And the “SLC11A2 fold change Average 1h60/1hK1” value (SLC11A2; 60 μM, 1 h vs 0.05% DMSO)?
Its value is 1.053 fold change.

And the “SLC11A2 fold change Average” value (SLC11A2; 60 μM)?
Its value is 1.549 fold change.

What about the “SLC11A2 fold change Average 1h100/1hK1” value (SLC11A2; 100 μM, 1 h vs 0.05% DMSO) of the same compound?
Its value is 1.056 fold change.

What about the “SLC11A2 fold change Average” value (SLC11A2; 100 μM) of the same compound?
The value was 1.499 fold change.

What about the “TBP fold change Average 1h30/1hK1” value (TBP; 30 μM, 1 h vs 0.05% DMSO) of the same compound?
The value was 0.974 fold change.

What about the “TBP fold change Average 24h30/24hK1” value (TBP; 30 μM, 24 h vs 0.05% DMSO) of the same compound?
The value was 0.8816 fold change.

And the “TBP fold change Average 48h30/48hK1” value (TBP; 30 μM, 48 h vs 0.05% DMSO)?
Its value is 0.9265 fold change.

And the “TBP fold change Average 1h60/1hK1” value (TBP; 60 μM, 1 h vs 0.05% DMSO)?
Its value is 0.9183 fold change.

What about the “TBP fold change Average 24h60/24hK1” value (TBP; 60 μM, 24 h vs 0.05% DMSO) of the same compound?
The value was 0.7892 fold change.

And the “TBP fold change Average 48h60/48hK1” value (TBP; 60 μM, 48 h vs 0.05% DMSO)?
Its value is 0.9926 fold change.

What about the “TBP fold change Average 1h100/1hK1” value (TBP; 100 μM, 1 h vs 0.05% DMSO) of the same compound?
Its value is 0.9531 fold change.

What about the “TBP fold change Average 24h100/24hK1” value (TBP; 100 μM, 24 h vs 0.05% DMSO) of the same compound?
Its value is 0.8303 fold change.

And the “TBP fold change Average 48h100/48hK1” value (TBP; 100 μM, 48 h vs 0.05% DMSO)?
The value was 0.8862 fold change.

And the “SMPD1 fold change Average 1h30/1hK1” value (SMPD1; 30 μM, 1 h vs 0.05% DMSO)?
The value was 1.0078 fold change.

What about the “SMPD1 fold change Average” value (SMPD1; 30 μM) of the same compound?
Its value is 1.2419 fold change.

And the “SMPD1 fold change Average 1h60/1hK1” value (SMPD1; 60 μM, 1 h vs 0.05% DMSO)?
Its value is 0.9831 fold change.

What about the “SMPD1 fold change Average” value (SMPD1; 60 μM) of the same compound?
Its value is 1.457 fold change.

And the “SMPD1 fold change Average 1h100/1hK1” value (SMPD1; 100 μM, 1 h vs 0.05% DMSO)?
The value was 1.012 fold change.

What about the “SMPD1 fold change Average” value (SMPD1; 100 μM) of the same compound?
The value was 1.673 fold change.

And the “HEXA fold change Average 1h30/1hK1” value (HEXA; 30 μM, 1 h vs 0.05% DMSO)?
The value was 1.2226 fold change.

And the “HEXA fold change Average” value (HEXA; 30 μM)?
The value was 1.0817 fold change.

And the “HEXA fold change Average 1h60/1hK1” value (HEXA; 60 μM, 1 h vs 0.05% DMSO)?
Its value is 1.174 fold change.

And the “HEXA fold change Average” value (HEXA; 60 μM)?
Its value is 1.474 fold change.

What about the “HEXA fold change Average 1h100/1hK1” value (HEXA; 100 μM, 1 h vs 0.05% DMSO) of the same compound?
Its value is 1.042 fold change.

And the “HEXA fold change Average” value (HEXA; 100 μM)?
The value was 1.621 fold change.
